Laboratory results taken from US4891370A, “Cephalosporin derivatives as anti-inflammatory agents” (Merck & Co., Inc., priority 1981, dated 1990).

Target: T1, Human Polymorphonuclear Leukocyte Elastase (Homo sapiens, UniProt P08246)
T1 construct: Crude extract of human polymorphonuclear leukocytes (PMN) containing elastase activity; endogenous in cells; host or cells: human polymorphonuclear leukocytes (crude extract)
T1 sequence (P08246 30-267): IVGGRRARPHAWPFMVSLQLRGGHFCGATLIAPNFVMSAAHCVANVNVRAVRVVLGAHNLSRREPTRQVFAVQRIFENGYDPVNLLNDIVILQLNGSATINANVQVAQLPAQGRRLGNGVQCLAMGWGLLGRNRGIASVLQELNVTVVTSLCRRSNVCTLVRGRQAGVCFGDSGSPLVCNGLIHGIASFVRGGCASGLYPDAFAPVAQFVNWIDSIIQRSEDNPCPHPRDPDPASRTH
Test: Enzyme assay for inhibition of human PMN elastase via hydrolysis of Boc-AAPAN
Assay type: biochemical
Conditions: % decrease in ΔOD/min at 410 mμ within 2 minutes vs control, crude PMN extract; for inhibition at 50 µg/mL: Conc. of compound 50 μg/ml
Description: Protocol--Enzyme Assays for the Inhibition of Human Polymorphonuclear Leukocyte Elastase Via Hydrolysis of N-t-Boc-alanyl-alanyl-prolylanaline-pnitroanilide Reagents:
0.05M TES (N-tris[hydroxymethyl]methyl-2-amino-ethanesulfonic acid) Buffer, pH 7.5.
0.2 mM N-t-Boc-alanyl-alanyl-Prolyl-Alanine-p-nitroanilide (Boc-AAPAN).
To prepare substrate, the solid (m.w. 550) was first dissolved in 10.0 ml DMSO. Buffer at pH 7.5 was then added to a final volume of 100 ml.
Crude extract of human polymorphonuclear leukocytes (PMN) containing elastase activity.
Inhibitors (cephalosporins) to be tested dissolved in DMSO just before use.
To 1.0 ml of 0.2 mM Boc-AAPAN in a cuvette, 0.01-0.1 ml of DMSO with or without inhibitor was added. After mixing, a measurement was taken at 410 mμ to detect any spontaneous hydrolysis due to presence of test compound. 0.05 Milliliters of PMN extract was then added and the ΔOD/min at 410 mμ was measured and recorded. Beckman model 35 spectrophotometer was used.
The elastase activity in the crude PMN extract may vary from one preparation to another. A control of each new batch is run, and the volume added in the assay procedure is adjusted according to activity.

`CO[C@@]1(NC(=O)CSCC#N)C(=O)N2C(C(=O)OCOC(=O)C(C)(C)C)=C(CSc3nnnn3C)CSC21` (some centres unmarked) showed an inhibition at 5 µg/mL (Conc. of compound 5 μg/ml) of 41%, an inhibition at 10 µg/mL (Conc. of compound 10 μg/ml) of 53% and an inhibition at 25 µg/mL (Conc. of compound 25 μg/ml) of 78%. It also gave an inhibition at 50 µg/mL of 81%.
Compound `C=CCCOC(=O)C1=C(COC(N)=O)CSC2N1C(=O)C2(NC(=O)Cc1cccs1)OC` (centres unmarked) has an inhibition at 50 µg/mL of 50%.
`C=CCCOC(=O)C1=C(COC(C)=O)CSC2C(NC(=O)Cc3cccs3)C(=O)N12` (centres unmarked) gave an inhibition at 50 µg/mL of 56%.
`COC1(NC(=O)Cc2cccs2)C(=O)N2C(C(=O)OCC(=O)COC(=O)C(C)(C)C)=C(COC(N)=O)CSC21` (centres unmarked) gave an inhibition at 50 µg/mL of 37%.
Work on `COC1(NC(=O)CSCC#N)C(=O)N2C(C(=O)OC3OC(=O)c4ccccc43)=C(CSc3nnnn3C)CSC21` (centres unmarked) yielded an inhibition at 50 µg/mL of 41%.
